Columns and labels:
CYPIR (Cyperus iria) = test: Flooded paddy, preemergence weed control; type: in vivo; details: rated 3-4 weeks after treatment, 0-9 rating scale
Outline: (§1)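 Seeds or propagating organs were sown in the top 0.5 cm of silt loam soil, flooded, and the water kept 1.5 to 3 cm above the soil surface throughout. Plants were grown in the greenhouse and rated visually on a 0-9 scale against a control.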

GALAP (Galium aparine) = test: Postemergence herbicidal evaluation; type: in vivo
Outline: (§2)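 Visual 0–9 injury scores versus control plants, covering stand, vigour, malformation, size, chlorosis and general appearance, taken four to five weeks post-spray and averaged over replicate tests. Plants were sprayed at roughly two weeks old and held on greenhouse benches.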

[1] = system: ABUTH (Abutilon theophrasti); test: Postemergence herbicidal evaluation; type: in vivo, Medic.
Outline: as §2

[2] = system: SAGPY (Sagittaria pygmaea); test: Flooded paddy, preemergence weed control; type: in vivo, L.; details: rated 3-4 weeks after treatment, 0-9 rating scale
Outline: as §1

ZEAMX (Corn, Field) = test: Preemergence herbicidal evaluation; type: in vivo, Zea mays, L.; details: rated 4-5 weeks after treatment
[3] = system: CHEAL (Chenopodium album); test: Postemergence herbicidal evaluation; type: in vivo, L.
Outline: as §2

[4] = system: CASOB (Cassia obtusifolia); test: Postemergence herbicidal evaluation; type: in vivo, L.
Outline: as §2

[5] = system: AMBEL (Ambrosia artemisifolia); test: Postemergence herbicidal evaluation; type: in vivo, L.
Outline: as §2

[6] = system: GLXMAW (Soybean, Williams); test: Preemergence herbicidal evaluation; type: in vivo, Glycine max, (L.) Merr. cv Williams; details: rated 4-5 weeks after treatment
ORYSAT (Rice, Tebonnet) = test: Flooded paddy, post-transplant rice tolerance; type: in vivo, Oryza sativa, (L.) Tebonnet; details: flooded paddy, post-transplant rice, rated 3-4 weeks after treatment, 0-9 rating scale
Outline: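 Visual 0–9 injury rating against a control, covering stand, vigor, malformation, size, chlorosis and overall appearance. Treatment was post-transplant onto flooded containers (water 1.5–3 cm deep, silt loam) holding two ten-day-old cv. Tebonnet seedlings, maintained on greenhouse benches.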

[7] = system: IPOHE (Ipomoea hederacea); test: Preemergence herbicidal evaluation; type: in vivo, (L.) Jacq.; details: rated 4-5 weeks after treatment

Cc1cc(C)nc(-c2nsc3ccc(-n4c(=O)cc(C(F)(F)F)n(C)c4=O)cc23)n1 [Compound 40, 3-[3-(4,6-dimethyl-2-pyrimidinyl)-1,2-benzisothiazol-5-yl]-1-methyl-6-(trifluoromethyl)uracil]
herbicidal rating, CYPIR (CYPIR (Cyperus iria); rate 0.0320 kg/ha): 5.0 | herbicidal rating, CYPIR (CYPIR (Cyperus iria); rate 0.1250 kg/ha): 6.0 | Postemergence herbicidal rating, GALAP (GALAP (Galium aparine); rate 0.0320 kg/ha): 2.0 | Postemergence herbicidal rating, GALAP (GALAP (Galium aparine); rate 0.0620 kg/ha): 2.0 | Postemergence herbicidal rating, ABUTH ([1]; rate 0.0320 kg/ha): 9.0 | Postemergence herbicidal rating, ABUTH ([1]; rate 0.0620 kg/ha): 9.0 | herbicidal rating, SAGPY ([2]; rate 0.0320 kg/ha): 0.0 | herbicidal rating, SAGPY ([2]; rate 0.1250 kg/ha): 5.0 | Preemergence herbicidal rating ZEAMX (ZEAMX (Corn, Field); Rate 0.0620 kg/ha): 4.0 | Preemergence herbicidal rating ZEAMX (ZEAMX (Corn, Field); Rate 0.1250 kg/ha): 8.0 | Preemergence herbicidal rating ZEAMX (ZEAMX (Corn, Field); Rate 0.2500 kg/ha): 9.0 | Postemergence herbicidal rating, CHEAL ([3]; rate 0.0320 kg/ha): 4.0 | Postemergence herbicidal rating, CHEAL ([3]; rate 0.0620 kg/ha): 6.0 | Postemergence herbicidal rating, CASOB ([4]; rate 0.0320 kg/ha): 1.0 | Postemergence herbicidal rating, CASOB ([4]; rate 0.0620 kg/ha): 6.0 | Postemergence herbicidal rating, AMBEL ([5]; rate 0.0320 kg/ha): 9.0 | Postemergence herbicidal rating, AMBEL ([5]; rate 0.0620 kg/ha): 9.0 | Preemergence herbicidal rating GLXMAW ([6]; Rate 0.0620 kg/ha): 2.0 | Preemergence herbicidal rating GLXMAW ([6]; Rate 0.1250 kg/ha): 2.0 | Preemergence herbicidal rating GLXMAW ([6]; Rate 0.2500 kg/ha): 5.0 | herbicidal rating, ORYSAT (rice tolerance) (ORYSAT (Rice, Tebonnet); rate 0.0320 kg/ha): 5.0 | herbicidal rating, ORYSAT (rice tolerance) (ORYSAT (Rice, Tebonnet); rate 0.1250 kg/ha): 7.0 | Preemergence herbicidal rating IPOHE ([7]; Rate 0.0620 kg/ha): 2.0 | Preemergence herbicidal rating IPOHE ([7]; Rate 0.1250 kg/ha): 7.0 | Preemergence herbicidal rating IPOHE ([7]; Rate 0.2500 kg/ha): 9.0

Cc1ccc(-c2nsc3ccc(-n4c(=O)cc(C(F)(F)F)n(C)c4=O)cc23)nc1 [Compound 42, 1-methyl-3-[3-(5-methyl-2-pyridyl)-1,2-benzisothiazol-5-yl]-6-(trifluoromethyl)uracil]
herbicidal rating, CYPIR (CYPIR (Cyperus iria); rate 0.0320 kg/ha): 3.0 | herbicidal rating, CYPIR (CYPIR (Cyperus iria); rate 0.1250 kg/ha): 6.0 | Postemergence herbicidal rating, GALAP (GALAP (Galium aparine); rate 0.0320 kg/ha): 1.0 | Postemergence herbicidal rating, GALAP (GALAP (Galium aparine); rate 0.0620 kg/ha): 3.0 | Postemergence herbicidal rating, GALAP (GALAP (Galium aparine); rate 0.1250 kg/ha): 3.0 | Postemergence herbicidal rating, ABUTH ([1]; rate 0.0320 kg/ha): 9.0 | Postemergence herbicidal rating, ABUTH ([1]; rate 0.0620 kg/ha): 9.0 | Postemergence herbicidal rating, ABUTH ([1]; rate 0.1250 kg/ha): 9.0 | herbicidal rating, SAGPY ([2]; rate 0.0320 kg/ha): 0.0 | herbicidal rating, SAGPY ([2]; rate 0.1250 kg/ha): 3.0 | Preemergence herbicidal rating ZEAMX (ZEAMX (Corn, Field); Rate 0.0620 kg/ha): 3.5 | Preemergence herbicidal rating ZEAMX (ZEAMX (Corn, Field); Rate 0.1250 kg/ha): 6.0 | Preemergence herbicidal rating ZEAMX (ZEAMX (Corn, Field); Rate 0.2500 kg/ha): 6.5 | Postemergence herbicidal rating, CHEAL ([3]; rate 0.0320 kg/ha): 9.0 | Postemergence herbicidal rating, CHEAL ([3]; rate 0.0620 kg/ha): 9.0 | Postemergence herbicidal rating, CHEAL ([3]; rate 0.1250 kg/ha): 9.0 | Postemergence herbicidal rating, CASOB ([4]; rate 0.0320 kg/ha): 1.0 | Postemergence herbicidal rating, CASOB ([4]; rate 0.0620 kg/ha): 1.0 | Postemergence herbicidal rating, CASOB ([4]; rate 0.1250 kg/ha): 4.0 | Postemergence herbicidal rating, AMBEL ([5]; rate 0.0320 kg/ha): 9.0 | Postemergence herbicidal rating, AMBEL ([5]; rate 0.0620 kg/ha): 9.0 | Postemergence herbicidal rating, AMBEL ([5]; rate 0.1250 kg/ha): 9.0 | Preemergence herbicidal rating GLXMAW ([6]; Rate 0.0620 kg/ha): 0.0 | Preemergence herbicidal rating GLXMAW ([6]; Rate 0.1250 kg/ha): 1.0 | Preemergence herbicidal rating GLXMAW ([6]; Rate 0.2500 kg/ha): 2.5 | herbicidal rating, ORYSAT (rice tolerance) (ORYSAT (Rice, Tebonnet); rate 0.0320 kg/ha): 3.0 | herbicidal rating, ORYSAT (rice tolerance) (ORYSAT (Rice, Tebonnet); rate 0.1250 kg/ha): 4.0 | Preemergence herbicidal rating IPOHE ([7]; Rate 0.0620 kg/ha): 1.0 | Preemergence herbicidal rating IPOHE ([7]; Rate 0.1250 kg/ha): 2.0 | Preemergence herbicidal rating IPOHE ([7]; Rate 0.2500 kg/ha): 4.5

CCOc1cc(OCC)nc(-c2nsc3ccc(-n4c(=O)cc(C(F)(F)F)n(C)c4=O)cc23)n1 [Compound 43, 3-[3-(4,6-diethoxy-2-pyrimidinyl)-1,2-benzisothiazol-5-yl]-1-methyl-6-(trifluoromethyl)uracil]
herbicidal rating, CYPIR (CYPIR (Cyperus iria); rate 0.0320 kg/ha): 0.0 | herbicidal rating, CYPIR (CYPIR (Cyperus iria); rate 0.1250 kg/ha): 5.0 | Postemergence herbicidal rating, GALAP (GALAP (Galium aparine); rate 0.0320 kg/ha): 4.0 | Postemergence herbicidal rating, GALAP (GALAP (Galium aparine); rate 0.0620 kg/ha): 4.0 | Postemergence herbicidal rating, ABUTH ([1]; rate 0.0320 kg/ha): 9.0 | Postemergence herbicidal rating, ABUTH ([1]; rate 0.0620 kg/ha): 9.0 | herbicidal rating, SAGPY ([2]; rate 0.0320 kg/ha): 0.0 | herbicidal rating, SAGPY ([2]; rate 0.1250 kg/ha): 2.0 | Preemergence herbicidal rating ZEAMX (ZEAMX (Corn, Field); Rate 0.0620 kg/ha): 2.0 | Preemergence herbicidal rating ZEAMX (ZEAMX (Corn, Field); Rate 0.1250 kg/ha): 2.0 | Preemergence herbicidal rating ZEAMX (ZEAMX (Corn, Field); Rate 0.2500 kg/ha): 6.0 | Postemergence herbicidal rating, CHEAL ([3]; rate 0.0320 kg/ha): 6.0 | Postemergence herbicidal rating, CHEAL ([3]; rate 0.0620 kg/ha): 9.0 | Postemergence herbicidal rating, CASOB ([4]; rate 0.0320 kg/ha): 2.0 | Postemergence herbicidal rating, CASOB ([4]; rate 0.0620 kg/ha): 3.0 | Postemergence herbicidal rating, AMBEL ([5]; rate 0.0320 kg/ha): 9.0 | Postemergence herbicidal rating, AMBEL ([5]; rate 0.0620 kg/ha): 9.0 | Preemergence herbicidal rating GLXMAW ([6]; Rate 0.0620 kg/ha): 1.0 | Preemergence herbicidal rating GLXMAW ([6]; Rate 0.1250 kg/ha): 3.0 | Preemergence herbicidal rating GLXMAW ([6]; Rate 0.2500 kg/ha): 5.0 | herbicidal rating, ORYSAT (rice tolerance) (ORYSAT (Rice, Tebonnet); rate 0.0320 kg/ha): 0.0 | herbicidal rating, ORYSAT (rice tolerance) (ORYSAT (Rice, Tebonnet); rate 0.1250 kg/ha): 2.0 | Preemergence herbicidal rating IPOHE ([7]; Rate 0.0620 kg/ha): 0.0 | Preemergence herbicidal rating IPOHE ([7]; Rate 0.1250 kg/ha): 0.0 | Preemergence herbicidal rating IPOHE ([7]; Rate 0.2500 kg/ha): 2.0

Cc1cccnc1-c1nsc2cc(F)c(-n3c(=O)cc(C(F)(F)F)n(C)c3=O)cc12 [Compound 44, 3-[6-fluoro-3-(3-methyl-2-pyridyl)-1,2-benzisothiazol-5-yl]-1-methyl-6-(trifluoromethyl)uracil]
herbicidal rating, CYPIR (CYPIR (Cyperus iria); rate 0.0080 kg/ha): 0.0 | herbicidal rating, CYPIR (CYPIR (Cyperus iria); rate 0.0320 kg/ha): 8.0 | herbicidal rating, CYPIR (CYPIR (Cyperus iria); rate 0.1250 kg/ha): 9.0 | Postemergence herbicidal rating, GALAP (GALAP (Galium aparine); rate 0.0320 kg/ha): 4.0 | Postemergence herbicidal rating, GALAP (GALAP (Galium aparine); rate 0.0620 kg/ha): 7.0 | Postemergence herbicidal rating, ABUTH ([1]; rate 0.0320 kg/ha): 9.0 | Postemergence herbicidal rating, ABUTH ([1]; rate 0.0620 kg/ha): 9.0 | herbicidal rating, SAGPY ([2]; rate 0.0080 kg/ha): 0.0 | herbicidal rating, SAGPY ([2]; rate 0.0320 kg/ha): 4.5 | herbicidal rating, SAGPY ([2]; rate 0.1250 kg/ha): 9.0 | Preemergence herbicidal rating ZEAMX (ZEAMX (Corn, Field); Rate 0.0620 kg/ha): 7.5 | Preemergence herbicidal rating ZEAMX (ZEAMX (Corn, Field); Rate 0.1250 kg/ha): 7.5 | Preemergence herbicidal rating ZEAMX (ZEAMX (Corn, Field); Rate 0.2500 kg/ha): 9.0 | Postemergence herbicidal rating, CHEAL ([3]; rate 0.0320 kg/ha): 9.0 | Postemergence herbicidal rating, CHEAL ([3]; rate 0.0620 kg/ha): 9.0 | Postemergence herbicidal rating, CASOB ([4]; rate 0.0320 kg/ha): 2.0 | Postemergence herbicidal rating, CASOB ([4]; rate 0.0620 kg/ha): 4.0 | Postemergence herbicidal rating, AMBEL ([5]; rate 0.0320 kg/ha): 9.0 | Postemergence herbicidal rating, AMBEL ([5]; rate 0.0620 kg/ha): 9.0 | Preemergence herbicidal rating GLXMAW ([6]; Rate 0.0620 kg/ha): 5.0 | Preemergence herbicidal rating GLXMAW ([6]; Rate 0.1250 kg/ha): 6.5 | Preemergence herbicidal rating GLXMAW ([6]; Rate 0.2500 kg/ha): 9.0 | herbicidal rating, ORYSAT (rice tolerance) (ORYSAT (Rice, Tebonnet); rate 0.0080 kg/ha): 0.0 | herbicidal rating, ORYSAT (rice tolerance) (ORYSAT (Rice, Tebonnet); rate 0.0320 kg/ha): 7.5 | herbicidal rating, ORYSAT (rice tolerance) (ORYSAT (Rice, Tebonnet); rate 0.1250 kg/ha): 7.5 | Preemergence herbicidal rating IPOHE ([7]; Rate 0.0620 kg/ha): 3.0 | Preemergence herbicidal rating IPOHE ([7]; Rate 0.1250 kg/ha): 7.5 | Preemergence herbicidal rating IPOHE ([7]; Rate 0.2500 kg/ha): 9.0
